Measured values taken from PubChem BioAssay (NCI).
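Test compounds were applied to cells in 96-well plates for 48 hours at 5 doses. At the TGI there is no net growth.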

Tests used:
Assay in all cases: inhibition of tumour cell growth, NCI panel, 48 h
MDA-MB-435 = tested on: MDA-MB-435
SK-MEL-5 melanoma = tested on: SK-MEL-5 melanoma
HL-60(TB) leukemia = tested on: HL-60(TB) leukemia
786-0 renal = tested on: 786-0 renal
A549 NSCLC = tested on: A549 NSCLC
SF-295 CNS = tested on: SF-295 CNS
KM12 colon = tested on: KM12 colon
HCC-2998 colon = tested on: HCC-2998 colon
MDA-MB-231 breast = tested on: MDA-MB-231 breast
HCT-15 colon = tested on: HCT-15 colon

## O=S(c1ccccc1)C1CC2CC3(CCC21O)OCCO3 (stereo not given)
MDA-MB-435
  TGI: > 100 µM
SK-MEL-5 melanoma
  TGI: > 100 µM
HL-60(TB) leukemia
  TGI: > 100 µM
786-0 renal
  TGI: > 100 µM
A549 NSCLC
  TGI: > 100 µM
SF-295 CNS
  TGI: > 100 µM
KM12 colon
  TGI: > 100 µM
HCC-2998 colon
  TGI: > 100 µM
MDA-MB-231 breast
  TGI: > 100 µM
HCT-15 colon
  TGI: > 100 µM

## COCCOC(C)C(=O)C(O)S(=O)(=O)O (stereo not given)
MDA-MB-435
  TGI: > 100 µM
SK-MEL-5 melanoma
  TGI: > 100 µM
HL-60(TB) leukemia
  TGI: > 100 µM
786-0 renal
  TGI: > 100 µM
A549 NSCLC
  TGI: > 100 µM
SF-295 CNS
  TGI: > 100 µM
KM12 colon
  TGI: > 100 µM
HCC-2998 colon
  TGI: > 100 µM
MDA-MB-231 breast
  TGI: > 100 µM
HCT-15 colon
  TGI: > 100 µM

## N#CCCN(CCC#N)c1ccc(/C=C2\SC(=S)NC2=O)cc1
MDA-MB-435
  TGI: > 100 µM
SK-MEL-5 melanoma
  TGI: > 100 µM
HL-60(TB) leukemia
  TGI: > 100 µM
786-0 renal
  TGI: > 100 µM
A549 NSCLC
  TGI: > 100 µM
SF-295 CNS
  TGI: > 100 µM
KM12 colon
  TGI: > 100 µM
HCC-2998 colon
  TGI: > 100 µM
MDA-MB-231 breast
  TGI: > 100 µM
HCT-15 colon
  TGI: > 100 µM

## O=C(N/N=C\c1cccs1)c1ccncc1
MDA-MB-435
  TGI: > 100 µM
SK-MEL-5 melanoma
  TGI: > 100 µM
HL-60(TB) leukemia
  TGI: > 100 µM
786-0 renal
  TGI: > 100 µM
A549 NSCLC
  TGI: > 100 µM
SF-295 CNS
  TGI: > 100 µM
KM12 colon
  TGI: > 100 µM
HCC-2998 colon
  TGI: > 100 µM
MDA-MB-231 breast
  TGI: > 100 µM
HCT-15 colon
  TGI: > 100 µM

## Cc1ccc(/C(O)=C/c2nc3cccnc3[nH]c2=O)cc1
MDA-MB-435
  TGI: > 100 µM
SK-MEL-5 melanoma
  TGI: > 100 µM
HL-60(TB) leukemia
  TGI: > 100 µM
786-0 renal
  TGI: > 100 µM
A549 NSCLC
  TGI: > 100 µM
SF-295 CNS
  TGI: > 100 µM
KM12 colon
  TGI: > 100 µM
HCC-2998 colon
  TGI: > 100 µM
MDA-MB-231 breast
  TGI: > 100 µM
HCT-15 colon
  TGI: > 100 µM

## C=CC(C)(C)C1(CC(OC)OC)C(=O)N(C)c2ccccc21 (stereo not given)
MDA-MB-435
  TGI: > 25 µM
SK-MEL-5 melanoma
  TGI: > 25 µM
HL-60(TB) leukemia
  TGI: > 25 µM
786-0 renal
  TGI: > 25 µM
A549 NSCLC
  TGI: > 25 µM
SF-295 CNS
  TGI: > 25 µM
KM12 colon
  TGI: > 25 µM
HCC-2998 colon
  TGI: > 25 µM
MDA-MB-231 breast
  TGI: > 25 µM
HCT-15 colon
  TGI: > 25 µM

## Cc1nc(N)sc1C(=O)Nc1ncn[nH]1
MDA-MB-435
  TGI: > 100 µM
SK-MEL-5 melanoma
  TGI: > 100 µM
HL-60(TB) leukemia
  TGI: 49.9 µM
786-0 renal
  TGI: > 100 µM
A549 NSCLC
  TGI: > 100 µM
SF-295 CNS
  TGI: > 100 µM
KM12 colon
  TGI: > 100 µM
HCC-2998 colon
  TGI: > 100 µM
MDA-MB-231 breast
  TGI: > 100 µM
HCT-15 colon
  TGI: > 100 µM

## C/C(=N/NC(=S)N(C)C)c1ccccc1O
MDA-MB-435
  TGI: > 100 µM
SK-MEL-5 melanoma
  TGI: > 49.8 µM
HL-60(TB) leukemia
  TGI: > 51.9 µM
786-0 renal
  TGI: > 100 µM
A549 NSCLC
  TGI: > 100 µM
SF-295 CNS
  TGI: > 100 µM
KM12 colon
  TGI: > 100 µM
HCC-2998 colon
  TGI: > 100 µM
MDA-MB-231 breast
  TGI: > 100 µM
HCT-15 colon
  TGI: > 100 µM

## N#C/C(=C/n1c(=S)[nH]c2ccccc21)C(N)=O
MDA-MB-435
  TGI: > 100 µM
SK-MEL-5 melanoma
  TGI: > 100 µM
HL-60(TB) leukemia
  TGI: 30.4 µM
786-0 renal
  TGI: > 100 µM
A549 NSCLC
  TGI: > 100 µM
SF-295 CNS
  TGI: > 100 µM
KM12 colon
  TGI: > 100 µM
HCC-2998 colon
  TGI: > 100 µM
MDA-MB-231 breast
  TGI: > 100 µM
HCT-15 colon
  TGI: > 100 µM

## CC(C)NCC(O)c1ccc(O)c2ncccc12 (stereo not given)
MDA-MB-435
  TGI: > 100 µM
SK-MEL-5 melanoma
  TGI: > 100 µM
HL-60(TB) leukemia
  TGI: > 100 µM
786-0 renal
  TGI: > 100 µM
A549 NSCLC
  TGI: > 100 µM
SF-295 CNS
  TGI: > 100 µM
KM12 colon
  TGI: > 100 µM
HCC-2998 colon
  TGI: > 100 µM
MDA-MB-231 breast
  TGI: > 100 µM
HCT-15 colon
  TGI: > 100 µM

## N#C/C=c1/c2ccccc2n2nc3ccccc3c12
MDA-MB-435
  TGI: > 100 µM
SK-MEL-5 melanoma
  TGI: > 100 µM
HL-60(TB) leukemia
  TGI: > 100 µM
786-0 renal
  TGI: 19.8 µM
A549 NSCLC
  TGI: > 100 µM
SF-295 CNS
  TGI: > 100 µM
KM12 colon
  TGI: 68.3 µM
HCC-2998 colon
  TGI: > 100 µM
MDA-MB-231 breast
  TGI: 16.6 µM
HCT-15 colon
  TGI: > 100 µM

## COC(=O)[C@H]1[C@@H](O)[C@@]2(O)c3c(OC)cc(OC)cc3O[C@@]2(c2ccc3c(c2)OCO3)[C@@H]1c1ccccc1
MDA-MB-435
  TGI: > 50 µM
SK-MEL-5 melanoma
  TGI: 0.0688 µM
HL-60(TB) leukemia
  TGI: 0.763 µM
786-0 renal
  TGI: 0.0944 µM
A549 NSCLC
  TGI: 0.5 µM
SF-295 CNS
  TGI: 0.143 µM
KM12 colon
  TGI: 0.113 µM
HCC-2998 colon
  TGI: 5.18 µM
MDA-MB-231 breast
  TGI: 0.211 µM
HCT-15 colon
  TGI: 0.107 µM

## COc1ccc(OC)c(NC2=NCCO2)c1
MDA-MB-435
  TGI: > 100 µM
SK-MEL-5 melanoma
  TGI: > 100 µM
HL-60(TB) leukemia
  TGI: > 100 µM
786-0 renal
  TGI: > 100 µM
A549 NSCLC
  TGI: > 100 µM
SF-295 CNS
  TGI: > 100 µM
KM12 colon
  TGI: > 100 µM
HCC-2998 colon
  TGI: > 100 µM
MDA-MB-231 breast
  TGI: > 100 µM
HCT-15 colon
  TGI: > 100 µM

## CCOC(=O)C1(C#N)C2(C#N)C(N)=NC(ON=C(C)C)(ON=C(C)C)C12C#N (stereo not given)
MDA-MB-435
  TGI: > 100 µM
SK-MEL-5 melanoma
  TGI: > 100 µM
HL-60(TB) leukemia
  TGI: > 100 µM
786-0 renal
  TGI: > 100 µM
A549 NSCLC
  TGI: > 100 µM
SF-295 CNS
  TGI: > 100 µM
KM12 colon
  TGI: > 100 µM
HCC-2998 colon
  TGI: > 100 µM
MDA-MB-231 breast
  TGI: > 100 µM
HCT-15 colon
  TGI: > 100 µM

## C/C(=N/NC(=S)Nc1cccc(Cl)c1)c1ccccn1
MDA-MB-435
  TGI: 15.4 µM
SK-MEL-5 melanoma
  TGI: 4 µM
HL-60(TB) leukemia
  TGI: 0.5 µM
786-0 renal
  TGI: 12.9 µM
A549 NSCLC
  TGI: 10.1 µM
SF-295 CNS
  TGI: 9.39 µM
KM12 colon
  TGI: 13.5 µM
HCC-2998 colon
  TGI: 17.5 µM
MDA-MB-231 breast
  TGI: 10.3 µM
HCT-15 colon
  TGI: 16.1 µM

## c1ccc(C(c2cccc3c2ccc2ccccc23)C(c2ccccc2)c2cccc3c2ccc2ccccc23)cc1 (stereo not given)
MDA-MB-435
  TGI: > 100 µM
SK-MEL-5 melanoma
  TGI: > 100 µM
HL-60(TB) leukemia
  TGI: > 100 µM
786-0 renal
  TGI: > 100 µM
A549 NSCLC
  TGI: > 100 µM
SF-295 CNS
  TGI: > 100 µM
KM12 colon
  TGI: > 100 µM
HCC-2998 colon
  TGI: > 100 µM
MDA-MB-231 breast
  TGI: > 100 µM
HCT-15 colon
  TGI: > 100 µM

## COc1cc(OCc2nc3cc(C(F)(F)F)ccc3nc2-c2ccccc2)cc(OC)c1OC
MDA-MB-435
  TGI: > 100 µM
SK-MEL-5 melanoma
  TGI: > 100 µM
HL-60(TB) leukemia
  TGI: > 100 µM
786-0 renal
  TGI: > 100 µM
A549 NSCLC
  TGI: > 100 µM
SF-295 CNS
  TGI: > 100 µM
KM12 colon
  TGI: > 100 µM
HCC-2998 colon
  TGI: > 100 µM
MDA-MB-231 breast
  TGI: > 100 µM
HCT-15 colon
  TGI: > 100 µM

## CCn1c(-c2ccc(OC)cc2)nc2c1C(=O)c1ccccc1C2=O
MDA-MB-435
  TGI: > 100 µM
SK-MEL-5 melanoma
  TGI: > 100 µM
HL-60(TB) leukemia
  TGI: > 100 µM
786-0 renal
  TGI: > 100 µM
A549 NSCLC
  TGI: > 100 µM
SF-295 CNS
  TGI: > 100 µM
KM12 colon
  TGI: > 100 µM
HCC-2998 colon
  TGI: > 100 µM
MDA-MB-231 breast
  TGI: > 100 µM
HCT-15 colon
  TGI: > 100 µM
